From patent US20220339150A1, “ENDOCANNABINOID SYSTEM-TARGETING PRODRUGS AND THERAPEUTIC USES THEREOF” (priority 2021, published 2022)
≈ marks a conversion by molar mass, not a printed value. Like-named read-outs stand apart in the source and are kept apart here.

Experiments:
[1] = Metabolic stability in human liver microsomes; type: in vitro ADME; details: for half-life at 15 µg/mL: pH 7.4, Table 3
Description: The prodrugs were incubated with the human liver microsomes at 37° C. as an indication of the susceptibility of prodrugs to undergo bioconversion in the liver. The reactions were initiated by adding 1.5 μL of the prodrug stock solution (10 mg/mL in DMSO) to a preheated solution consisting of 748.5 μL potassium phosphate buffer solution (20 mM, pH 7.4, ionic strength 0.5), 200 μL NADPH, and 50 μLhuman liver microsomes (mixed gender, 0.5 ml at 20 mg/mL). The solutions were stirred at a constant temperature of 37° C. At appropriate intervals, 50 μLof samples were mixed with 100 μL of ice-cold MeOH. After immediate mixing and centrifugation (5 min at 14.000 rpm), the resulting clear supernatant was analyzed for the remaining prodrug by HPLC.

[2] = system: reconstructed human epidermis cells; assay: In vitro skin permeability (SkinEthic Episkin reconstructed human epidermis); type: in vitro ADME; details: receiver 15% HP-beta-CD pH 7.4
Description: The in vitro permeability studies were carried out in commercial reconstructed human epidermis cells (SkinEthic™ Episkin Reconstructed human epidermis). This model is composed of TR146 cells (derived from a squamous cell carcinoma of the buccal mucosa) cultivated on an inert polycarbonate filter at the air-liquid interface in a chemically defined medium. This model forms an epithelial tissue devoid of stratum corneum, resembling histologically to the mucosa of the oral cavity.
Upon receiving the cells, each insert (0.5 cm^2 or 0.33 cm^2) was placed in a plate containing 800 μL fresh medium at room temperature. The culture dishes were placed in the incubator at 37° C., 5% CO2, and saturated humidity overnight. Next day, the inserts were placed in a plate containing 800 μL 15% HP-β-cyclodextrin in H2O. CBD and CBG, and prodrugs CBDp27 and CBGp1 were dissolved in two different vehicles, 1:1:1 prop gly:water:EtOH/6% Brij 98, and 100% mineral oil. The receiver solution was 15% HP-beta-CD in phosphate buffer (pH 7.4). 400 μL the prodrugs were applied as suspensions (ca. 2 mg/ml). The plates were stirred gently at 37° C. At appropriate intervals, the receptor compartment was sampled (100 μL) and replenished with fresh […] solution each time. The samples were mixed with 100 μL of MeOH, and analyzed for drug (both the parent drug and prodrug) by HPLC-MS.
The flux-values for the rate of delivery of drugs were determined from Fick's law of diffusion.

[3] = Aqueous solubility of CBD and solubility in various solvents; type: physicochemical
Description: CBD was dissolved in 50 mM phosphate buffer, pH 6.8, containing 10% (v/v) EtOH. Suspensions were centrifuged for 3 min at 14000 rpm. Solubilities are between 15-110 μg/ml. Some floating particles can be seen which, once dissolved, cause variation in the result. When the suspension was filtered (Millex 0.45 μm) no detectable (HPLC) CBD was found.
CBD solubility in various solvents when ca. 1 mg was dissolved in ca. 1 ml. Solutions/suspensions were centrifuged, and 100 μl of the sample was mixed with 100 μl MeOH:H2O (1:1).
The solubility of CBD in various solvents is shown below: • 1. 50% EtOH:50% H2O=ca. 1 mg/ml • 2. 15% HP-beta-CD:85% H2O=0.7 mg/ml • 3. 5% HP-beta-CD:0.5% HPMC:84.5% H2O=0.16 mg/ml • 4. 4% BSA:95% H2O=0.07 mg/ml • 5. 90% Propylene glycol:10% H2O=0.87 mg/ml • 6. 30% Solutol® HS 15:10% EtOH:60% H2O=0.96 mg/ml

C=C(C)[C@@H]1CCC(C)=C[C@H]1c1c(O)cc(CCCCC)cc1O [CBD, Cannabidiol]
Half-life in human liver microsomes (single determinations) ([1]; Table 3, 37° C., NADPH): 23.4 min
half-life at 15 µg/mL ([1]; both sexes, human, microsomes, 37° C., NADPH, read-out: Half-life in human liver microsomes (single determinations) (converted)): 36 min
half-life at 15 µg/mL ([1]; both sexes, human, microsomes, average of determinations, read-out: Half-life in human liver microsomes (avg.) (converted)): 30 min
microsomal CLint at 15 µg/mL ([1]; both sexes, human, microsomes, pH 7.4, Table 3, CLint = k/P, protein 1 mg, read-out: Intrinsic clearance CLint): 23.1 µL/min/mg
Skin permeation, applied compound (parent or intact prodrug) ([2]; vehicle mineral oil): 0.0233 ± 0.007 nmol/cm^2/h
Skin permeation, applied compound (parent or intact prodrug) ([2]; vehicle solvent mix (1:1:1 prop gly:water:EtOH/6% Brij 98)): 1.16 ± 0.12 nmol/cm^2/h
Solubility after filtration (HPLC) ([3]; 50 mM phosphate buffer, pH 6.8, 10% EtOH, suspension filtered (Millex 0.45 μm)): no detectable
solubility ([3]; 15% HP-beta-CD:85% H2O, ca. 1 mg in ca. 1 ml): 700 µg/mL (≈ 2230 µM)
solubility ([3]; aqueous with cosolvent or surfactant or cyclodextrin, thermodynamic from solid, 4% BSA:95% H2O, ca. 1 mg in ca. 1 ml, read-out: Solubility): 70 µg/mL (≈ 223 µM)
solubility ([3]; aqueous with cosolvent or surfactant or cyclodextrin, thermodynamic from solid, 5% HP-beta-CD:0.5% HPMC:84.5% H2O, ca. 1 mg in ca. 1 ml, read-out: Solubility): 160 µg/mL (≈ 509 µM)
solubility ([3]; aqueous with cosolvent or surfactant or cyclodextrin, thermodynamic from solid, 30% Solutol HS 15:10% EtOH:60% H2O, ca. 1 mg in ca. 1 ml, read-out: Solubility): 960 µg/mL (≈ 3050 µM)
solubility ([3]; aqueous with cosolvent or surfactant or cyclodextrin, thermodynamic from solid, 50% EtOH:50% H2O, ca. 1 mg in ca. 1 ml, read-out: Solubility): ~1000 µg/mL (≈ 3180 µM)
solubility ([3]; organic solvent or mixture, thermodynamic from solid, 90% Propylene glycol:10% H2O, ca. 1 mg in ca. 1 ml, read-out: Solubility): 870 µg/mL (≈ 2770 µM)
solubility ([3]; phosphate buffer with 10% (v/v) ethanol, aqueous with cosolvent or surfactant or cyclodextrin, thermodynamic from solid, 50 mM phosphate buffer, pH 6.8, 10% (v/v) EtOH, suspension centrifuged, read-out: Solubility): 15 to 110 µg/mL (≈ 47.7 to 350 µM)
